# Test results taken from publication PMC6108078 (Chemical research in toxicology, 2018).
# Values joined by “and” are separate entries in the source; they are usually repeats but may differ in a detail not shown here. Equal entries are not always repeated. Where two headings read alike, the source gives them in different places.
# Columns and labels:
# [1] = target: P450 3A4 (Homo sapiens, UniProt P08684); test: Kinetics of sunitinib metabolite formation by recombinant P450 3A4; type: in vitro ADME; details: sunitinib N-deethylation (M1 formation), recombinant enzymes
# [2] = monkeys administered [14C]sunitinib L-malate; ref sunitinib NDA document, 9; cited from earlier work
# [3] = cited from earlier work
# [4] = mass balance studies in humans; cited from earlier work
# [5] = type: in vitro ADME, human
# [6] = for decrease of M5 formation compared to vehicle control: furafylline 25 μM, quinidine 2 μM
# [7] = patients taking sunitinib; cited from earlier work
# [8] = GSH trapping in pooled human liver microsomes; type: in vitro ADME; details: microsomal incubations in the absence of NADPH supplementation
# [9] = test system: HepG2 cells; details: treatment of HepG2 cells; cited from earlier work
# [10] = in the absence of dGSH, sunitinib 25 μM, 1 mg/mL, 30 min
# [11] = in the presence of dGSH (1 mM), sunitinib 25 μM, 1 mg/mL, 30 min
# [12] = sunitinib 10 μM, 0.1 mg/mL, GSH 5 mM, 10 min, ketoconazole 1 μM, CYP3cide 2 μM, mean ± SD, n = 3
# Chain of P450 3A4 (P08684 whole entry): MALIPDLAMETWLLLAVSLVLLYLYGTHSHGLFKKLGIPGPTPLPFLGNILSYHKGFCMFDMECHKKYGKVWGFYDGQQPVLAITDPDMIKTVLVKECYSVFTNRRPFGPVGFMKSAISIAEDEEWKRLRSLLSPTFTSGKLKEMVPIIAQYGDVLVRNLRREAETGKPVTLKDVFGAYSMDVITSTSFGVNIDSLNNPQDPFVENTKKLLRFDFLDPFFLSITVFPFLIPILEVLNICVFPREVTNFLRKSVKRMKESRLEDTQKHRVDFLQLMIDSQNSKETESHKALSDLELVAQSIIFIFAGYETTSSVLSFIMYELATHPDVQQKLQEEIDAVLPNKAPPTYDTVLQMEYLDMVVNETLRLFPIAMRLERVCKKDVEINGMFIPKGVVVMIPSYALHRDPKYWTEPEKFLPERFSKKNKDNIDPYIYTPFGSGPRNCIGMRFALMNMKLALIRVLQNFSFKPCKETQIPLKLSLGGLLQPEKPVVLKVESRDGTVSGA
compound,measurement,setting,value
"CCNCCNC(=O)c1c(C)[nH]c(/C=C2\C(=O)Nc3ccc(F)cc32)c1C [M1, N-desethylsunitinib]",fold higher efficiency (kcat/Km) of P450 3A4 compared to P450 1A2,[1],~5 fold
same,share of the total radioactivity recovered in feces,[2],20–40%
same,activity relative to parent drug,[3],equal to that of the parent drug
same,share of the total dose,[4],32–52%
same,M1 share of the metabolic turnover of sunitinib,[5]; [10],70%
same,ratio of M1 to sunitinib UV peak area,[5]; [10],0.70
same,M1 share of the metabolic turnover of sunitinib,[5]; [11],41%
same,ratio of M1 to sunitinib (UV peak area at 420–440 nm),[5]; [11],0.41
same,M1 share of sunitinib metabolic turnover in human liver microsomes,[5]; summary statement in discussion,≥ 41%
same,fold higher M1 levels in the absence of dGSH compared to in the presence of dGSH,"[5]; sunitinib 25 μM, 1 mg/mL, 30 min, UV absorbance peak area at 430 nm, n = 2-3",2.5 fold
Cc1nc2c([nH]1)c(=O)n(C)c(=O)n2Cc1ccco1 [furafylline],decrease of M5 formation compared to vehicle control,[6]; [12],62% and 62 ± 17%
CC(=O)N1CCN(c2ccc(OCC3COC(Cn4ccnc4)(c4ccc(Cl)cc4Cl)O3)cc2)CC1 (centres unmarked) [ketoconazole],decrease of M5 formation compared to vehicle control,[6]; [12],52 ± 4%
same,decrease of M1 levels compared to vehicle control,[6]; [12],88% and 88 ± 5%
same,decrease of M3 levels compared to control,[6]; [12],40 ± 9%
CCN(CC)CCNC(=O)c1c(C)[nH]c(/C=C2\C(=O)Nc3ccc(F)cc32)c1C [sunitinib],occurrence of clinically significant liver injury,[7],3–4 % of patients
same,occurrence of liver failure,[7],0.3 % of patients
same,direct GSH conjugation of parent drug (Sun–SG),[8],evidence for the direct conjugation of GSH to the parent drug
same,hepatocellular toxicity effects,[9],"increase the production of reactive oxygen species, disrupt the mitochondrial membrane potential, deplete glutathione content, and induce apoptosis in a concentration-dependent manner"
O=c1cc(-c2ccccc2)oc2c1ccc1ccccc12 [α-naphthoflavone],effect on formation of M3 and M5,"[6]; initial experiments, coincubation with sunitinib, data not shown",significantly increased
same,increase of M3 levels compared to control,"[6]; sunitinib 10 μM, 0.1 mg/mL, GSH 5 mM, 10 min, α-naphthoflavone 1 μM, mean ± SD, n = 3",41 ± 17%
